Results on 15 molecules are retold here after patent US20090030024A1, “THIAZOLES AS FUNGICIDES” (priority 2005, published 2009).

The structures appear in SMILES notation. Marks after values point to notes of the source that are not given here.

A short description of the first data set: logP determination by retention times (calibration with alkan-2-ones).
Conditions: not given
In turn, `COCc1nc(C)c(-c2ccnc(Nc3cccc(C(F)(F)F)c3)n2)s1` [Example 299, 4-[2-(methoxymethyl)-4-methyl-1,3-thiazol-5-yl]-N-[3-(trifluoromethyl)phenyl]pyrimidine-2-amine] showed a chromatographic logP of 3.41.
Same read-out and setting: under `Cc1nc(C(C)C)sc1-c1ccnc(Nc2ccc(N(C)C)c(Cl)c2)n1` [Example 64, 2-chloro-N4-[4-(2-isopropyl-4-methyl-1,3-thiazol-5-yl)pyrimidin-2-yl]-N1,N1-dimethylbenzene-1,4-diamine] stands 2.72; under `CSc1nc(C)c(-c2ccnc(Nc3cccc(C(C)=O)c3)n2)s1` [Example 28, 1-[3-({4-[4-methyl-2-(methylthio)-1,3-thiazol-5-yl]pyrimidin-2-yl}amino)phenyl]ethanone], 2.99; under `Cc1nc(N)sc1-c1ccnc(Nc2cccc(Cl)c2)n1` [Example 204, 4-(2-amino-4-methyl-1,3-thiazol-5-yl)-N-(3-chlorophenyl)pyrimidine-2-amine], 1.78.

The same data set, now with this note: * HPLC reversed-phase C18, 40° C., mobile phase 0.1% aqueous formic acid and acetonitrile, linear gradient 10% to 95% acetonitrile.
As for `CNc1nc(C)c(-c2ccnc(Nc3cccc(CNC(=O)OC(C)(C)C)c3)n2)s1` [Example 658, tert-butyl-[3-({4-[4-methyl-2-(methylamine)-1,3-thiazol-5-yl]pyrimidin-2-yl}amino)benzyl]carbamate], the logP was 1.99*.

The same data set, now with this note: HPLC, reversed-phase C 18, EEC Directive 79/831 Annex V.A8; method *: 40° C., 0.1% aqueous formic acid and acetonitrile, linear gradient 10% to 95% acetonitrile.
With `Cc1nc(NC(C)(C)C)sc1-c1ccnc(Nc2ccc(O)cc2)n1` [Example 180, 4-({4-[2-(tert-butylamine)-4-methyl-1,3-thiazol-5-yl]pyrimidin-2-yl}amino)phenol], the logP is reported as 1.67*.

The data set is the same for the next values; noted with them: logP, * HPLC reversed-phase C18, 40° C., mobile phase 0.1% aqueous formic acid and acetonitrile, linear gradient 10% to 95% acetonitrile.
Regarding `Cc1nc(C(F)F)c(-c2ccnc(Nc3cccc(Cl)c3)n2)s1` [Example 757, N-(3-chlorophenyl)-4-[4-(difluoromethyl)-2-methyl-1,3-thiazol-5-yl]pyrimidine-2-amine], the chromatographic logP stood at 1.41.
For the molecule `CCc1nc(C)c(-c2ccnc(Nc3ccc(CNC(=O)OC(C)(C)C)cc3)n2)s1` [Example 632, tert-butyl-(4-{[4-(2-ethyl-4-methyl-1,3-thiazol-5-yl)pyrimidin-2-yl]amino}benzyl)carbamate], the chromatographic logP came out at 3.26.
The same measure, in the same setting: next, `Cc1nc(N2CCOCC2)sc1-c1ccnc(Nc2ccccc2)n1` [Example 731, 4-(4-methyl-2-morpholin-4-yl-1,3-thiazol-5-yl)-N-phenylpyrimidine-2-amine]: 2.25.
Consider `CCc1nc(C)c(-c2ccnc(Nc3ccc(N4CCCC4=O)cc3)n2)s1` [Example 748, 1-(4-{[4-(2-ethyl-4-methyl-1,3-thiazol-5-yl)pyrimidin-2-yl]amino}phenyl)pyrrolidin-2-one], for which the chromatographic logP was determined as 2.24.

The same data set, now with this note: logP, values marked *: HPLC on reversed-phase C 18, 40° C., mobile phase 0.1% aqueous formic acid and acetonitrile, linear gradient 10% to 95% acetonitrile.
`Cc1nc(C(C)(C)C)sc1-c1ccnc(Nc2ccccc2)n1` [Example 882, 4-(2-tert-butyl-4-methyl-1,3-thiazol-5-yl)-N-phenylpyrimidine-2-amine] had a chromatographic logP of 4.24.
The same measure, in the same setting: next, `COCCNc1nc(C)c(-c2ccnc(Nc3ccc(O)cc3)n2)s1` [Example 808, 4-[(4-{2-[(2-methoxyethyl)amino]-4-methyl-1,3-thiazol-5-yl}pyrimidin-2-yl)amino]phenol]: 1.22.
`CCc1nc(C)c(-c2nc(Nc3cc(OC)c(OC)c(OC)c3)ncc2Cl)s1` [Example 907, 5-chloro-4-(2-ethyl-4-methyl-1,3-thiazol-5-yl)-N-(3,4,5-trimethoxyphenyl)pyrimidine-2-amine] returned a chromatographic logP of 3.2.
The same measure, in the same setting: next, `CCc1nc(C)c(-c2ccnc(Nc3ccc(F)c(OC)c3)n2)s1` [Example 863, 4-(2-ethyl-4-methyl-1,3-thiazol-5-yl)-N-(4-fluoro-3-methoxyphenyl)pyrimidine-2-amine]: 2.99.
On the same count and under the same terms, next, `Cc1nc(C)c(-c2nc(Nc3ccccc3)ncc2Br)s1` [Example 909, 5-bromo-4-(2,4-dimethyl-1,3-thiazol-5-yl)-N-phenylpyrimidine-2-amine]: 3.3.
